This assay relates to DNA polymerase (JDF-3 P41OL/A485T). Description: Assay for incorporation of chain terminators (primer extension, denaturing PAGE on ABI 377 sequencer). The assay is classed as biochemical. The settings on record: for terminator/dNTP ratio giving a similar pattern (signal strength and length): FIG. 8, ddATP lane 2, PME-App lane 3, dNTPs each at 50 μM, 25 cycles. As to the method:
Reactions (20 μl) consisted of 0.5 pmol fluorescein-labeled primer pFI-20, 1 pmol pBluescript II, 5 U DNA polymerase (JDF-3 P41OL/A485T), all four dNTPs (each at 50 μM) and varying concentrations of only ddATP or PME-App in 20 mM Tris pH 8.8, 10 mM (NH4)2SO4, and 2 mM MgSO4. Reactions were incubated in a Perkin-Elmer 9600 for 25 cycles as follows: 95° C. for 30 s, 50° C. for 30 s and 72° C. for 4 min. The reactions were quenched with ice-cold 0.2 M EDTA (final concentration), dried, and the pellets dissolved in a 3:1 formamide: EDTA/blue dextran. Reactions were then analyzed by 6% denaturing PAGE on an ABI 377 sequencer.
The relative ratio can be determined more exactly by repeating the reactions over a narrower range of ratios.

Two compounds from patent publication US6858393B1, “Chain terminators for DNA synthesis” (Stratagene California, priority 2002, dated 2005) can be followed below.

For the compound `Nc1ncnc2c1ncn2CCOCP(=O)(O)OP(=O)(O)OP(=O)(O)O` [PME-App, PME-adenine diphosphate], the “terminator/dNTP ratio giving a similar pattern (signal strength and length)” value is on record as 1/5.
For the compound `Nc1ncnc2c1ncn2[C@H]1CC[C@@H](COP(=O)(O)OP(=O)(O)OP(=O)(O)O)O1` [ddATP], the “terminator/dNTP ratio giving a similar pattern (signal strength and length)” value is 1/10. Also, the “relative incorporation efficiency of ddATP versus PME-App” value (ddATP better than PME-App, from comparison of lane patterns in FIG. 8, all four dNTPs each at 50 μM) was 2 fold.
